According to PubChem BioAssay (NCI):
“And” between values parts separate entries of the source, which are not always exact repeats. Equal values may be shown once.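 Compound exposure: 48 hours, 5 concentrations, 96-well plates. GI50 = concentration required for 50% inhibition of growth. TGI denotes the concentration required for complete inhibition of growth.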

Legend:
Assay in all cases: DTP human tumour cell line panel, 48 h
ACHN renal = tested on: ACHN renal
DU-145 prostate = tested on: DU-145 prostate
EKVX NSCLC = tested on: EKVX NSCLC
NCI/ADR-RES ovarian = tested on: NCI/ADR-RES ovarian
OVCAR-5 ovarian = tested on: OVCAR-5 ovarian
PC-3 prostate = tested on: PC-3 prostate
SF-268 CNS = tested on: SF-268 CNS
SK-MEL-28 melanoma = tested on: SK-MEL-28 melanoma
SK-MEL-5 melanoma = tested on: SK-MEL-5 melanoma
UACC-257 melanoma = tested on: UACC-257 melanoma

| SMILES | GI50 (ACHN renal) | TGI (ACHN renal) | GI50 (DU-145 prostate) | TGI (DU-145 prostate) | TGI (EKVX NSCLC) | GI50 (NCI/ADR-RES ovarian) | TGI (NCI/ADR-RES ovarian) | GI50 (OVCAR-5 ovarian) | TGI (OVCAR-5 ovarian) | GI50 (PC-3 prostate) | TGI (PC-3 prostate) | GI50 (SF-268 CNS) | TGI (SF-268 CNS) | GI50 (SK-MEL-28 melanoma) | TGI (SK-MEL-28 melanoma) | GI50 (SK-MEL-5 melanoma) | TGI (SK-MEL-5 melanoma) | GI50 (UACC-257 melanoma) | TGI (UACC-257 melanoma) | GI50 (EKVX NSCLC) |
| --- | --- | --- | --- | --- | --- | --- | --- | --- | --- | --- | --- | --- | --- | --- | --- | --- | --- | --- | --- | --- |
| CC1(C)CCC2=C(O1)c1ccccc1C(=O)C2=O | 1.62 µM and 1.02 µM | 2.97 µM and 2.18 µM | 1.71 µM | 3.08 µM and 1.4 µM | 3.78 µM and 3.59 µM | 0.445 µM and 0.481 µM | 2.69 µM and 1.8 µM | 1.81 µM | 3.33 µM and 1.02 µM | 1.24 µM | 3.01 µM and 6.31 µM | 1.44 µM | 3.32 µM and 1.83 µM | 1.88 µM and 0.406 µM | 3.39 µM and 1.44 µM | 1.01 µM | 2.19 µM and 0.714 µM | 1.56 µM | 3.05 µM and 0.429 µM |  |
| C[C@]12CC[C@H](O)C[C@H]1CC[C@@H]1[C@@H]2CC[C@]2(C)[C@@H](C3=CC(=O)OC3)[C@@H](O)C[C@]12O |  | 1.82 µM |  | 2.71 µM | 2.78 µM |  | 3.9 µM |  | 8.03 µM |  | 3.1 µM |  | 2.55 µM |  | 25.6 µM |  | 3.2 µM |  | 5.46 µM |  |
| CCCCCCCCCCCCCC1=NCCN1CCO | 2.04 µM | 4.68 µM | 3.88 µM | 15.7 µM | 28.4 µM | 5 µM | 21.2 µM | 5.47 µM | 18.3 µM | 3.37 µM | > 34.5 µM | 2.83 µM | 8.12 µM | 1.99 µM | 4.02 µM | 3.26 µM | 11.2 µM | 12.6 µM | 36.9 µM | 8.35 µM |
| c1cc2[nH]ncc2cc1-c1nc2ccc3[nH]ncc3c2c2c1CCCC2 | 0.583 µM | 10.7 µM | 2.27 µM | 11.2 µM | 9.15 µM | 2.08 µM | 16.4 µM | 3.06 µM | 18.5 µM | 1.44 µM | 21.5 µM | 2.31 µM | 14 µM | 1.28 µM | 5.88 µM | 1.67 µM | 3.92 µM | 1.67 µM | 8.21 µM | 1.91 µM |
| CCOC(=O)n1cc(C2=C(c3cn(C)c4ccccc34)COC2=O)c2ccccc21 | 0.0795 µM | > 100 µM | 0.391 µM | > 58 µM | > 100 µM | 0.0531 µM |  | 0.462 µM | > 100 µM | 0.162 µM | > 100 µM | 1.02 µM | 62.9 µM | 1.03 µM | > 100 µM | 0.0359 µM | 0.393 µM | 3.52 µM | > 100 µM | 0.177 µM |
| C=CC(=O)NCc1cccc(Nc2ncc(Br)c(NCCCNC(=O)C3CCC3)n2)c1 | 1.66 µM and 0.712 µM | 12.5 µM and > 25 µM | 1.25 µM and 1.36 µM | 12.5 µM and 19.4 µM | 6.07 µM and 14.9 µM | 7.28 µM and 7.94 µM | 12.5 µM and > 25 µM | 0.709 µM and 2.56 µM | 12.5 µM and 15.6 µM | 1.55 µM and 0.933 µM | 12.5 µM and 7.04 µM | 0.297 µM and 0.296 µM | 2.57 µM and 4.07 µM | 2.44 µM and 2.26 µM | 9.94 µM and 9.29 µM | 2.23 µM and 1.87 µM | 5.35 µM and 5.81 µM | 2.57 µM and 3.46 µM | 12.5 µM and 20.6 µM | 1.59 µM and 2.59 µM |
| O=CNc1ncn[nH]1 |  | > 100 µM |  | > 100 µM | > 100 µM |  | > 100 µM |  | > 100 µM |  | > 100 µM |  | > 100 µM |  | > 100 µM |  | > 100 µM |  | > 100 µM |  |
| Cc1ccc(C(SCC(N)C(=O)O)(c2ccc(C)cc2)c2ccc(C)cc2)cc1 (stereo not drawn) | 14.5 µM | > 68.3 µM | 2.45 µM | 5.59 µM | 39.4 µM | 15 µM | 53.7 µM | 9.2 µM | > 48.6 µM | 2.94 µM | 20.1 µM | 1.89 µM | 19.5 µM | 7.47 µM | 22.7 µM | 0.907 µM | 14.7 µM | 6.18 µM | 26.7 µM | 4.32 µM |
| CC1COc2c(N3CCN(C)CC3)c(F)cc3c(=O)c(C(=O)O)cn1c23 (stereo not drawn) | > 100 µM | > 100 µM | > 100 µM | > 100 µM | > 100 µM | > 100 µM | > 100 µM | 84.4 µM | > 100 µM | > 100 µM | > 100 µM | > 100 µM | > 100 µM | > 100 µM | > 100 µM | > 100 µM | > 100 µM | > 100 µM | > 100 µM | > 100 µM |
| O=[N+]([O-])c1ccccc1N/N=C\c1c[nH]c2ccccc12 | 13.9 µM | > 67.3 µM | 27.6 µM | > 100 µM | > 100 µM | 8.85 µM | > 100 µM | > 58.2 µM | > 100 µM | 4.25 µM | > 100 µM | 9.04 µM | > 100 µM | > 100 µM | > 100 µM | 71.4 µM | > 100 µM | 26.4 µM | > 100 µM | 2.49 µM |
| CN(C)c1ccc(N=C2C=CC(=[N+](C)C)C=C2)cc1 | 12.2 µM | 37.5 µM | 22.3 µM | > 100 µM | 40.7 µM | 19.1 µM | > 100 µM | 20.4 µM | 76.6 µM | 4.89 µM | 22.7 µM | 11 µM | 68.1 µM | 14.2 µM | > 100 µM | 3.26 µM | 11.8 µM | 7.12 µM | 24.8 µM | 3.58 µM |
| CC(C)(C)C(=O)OCOP(=O)(OCOC(=O)C(C)(C)C)C1CC(O)N(O)C1=O (stereo not drawn) | 6.04 µM | > 100 µM | 6.7 µM | > 100 µM | > 100 µM | 4.39 µM | > 100 µM | 20.4 µM | > 100 µM | 8.81 µM | > 100 µM | 3.54 µM | > 100 µM | 2.38 µM | 6.44 µM | 21.5 µM | > 100 µM | > 100 µM | > 100 µM | 10.8 µM |
| CS(=O)(=O)Nc1ccc(-c2cc(-c3ccccc3)cc(C(N)=O)c2N)cc1 | > 25 µM | > 25 µM | > 25 µM | > 25 µM | > 25 µM | > 25 µM | > 25 µM | > 25 µM | > 25 µM | 14.2 µM | > 25 µM | > 25 µM | > 25 µM | > 25 µM | > 25 µM | 15.6 µM | > 25 µM | > 25 µM | > 25 µM | > 25 µM |
